Key:
Format in all cases: in vivo, human
[1] = tested on: moderate ulcerative colitis; test: Two phase III randomized double-blind trials: overall improvement (treatment success) from baseline at week 6; conditions: for Overall improvement: all subjects with moderately active UC, Studies I and II
Text: Data from subjects with mild to moderate UC are combined and analyzed from two phase III, multi-center, randomized, double-blind, controlled clinical trials of identical design assessing the safety and clinical efficacy of an increased dosage of 5-ASA. The primary endpoint is the percentage of moderate UC subjects achieving overall improvement (i.e., treatment success) from baseline at week 6. This is defined as: (1) complete response (remission); complete resolution of signs and symptoms (stool frequency, rectal bleeding, Subject Functional Assessment (SFA) and sigmoidoscopy score) and a Physician's Global Assessment (PGA) of 0; or (2) partial response; improvement from baseline in the PGA score and improvement in at least one clinical assessment (stool frequency, rectal bleeding, SFA and sigmoidoscopy score) and no worsening in any of the other clinical assessments. […] Pre-specified subgroup analyses for fifty-four demographic and baseline characteristics are performed in subjects with moderately active disease (PGA score=2) to assess consistency of primary endpoint.

[2] = tested on: moderate ulcerative colitis; test: Bayesian analysis of treatment success probability in men with moderate disease
Description: In addition, a Bayesian analysis is conducted to calculate the probability that treatment with the 4.8 g/day dose in men results in a higher success rate than treatment with the 2.4 g/day does. This type of analysis considers data from any previous studies conducted using either of the two dose levels. […] Using these prior distributions and Bayes analyses, the “posterior distribution” is calculated for each dose level based on the date obtained from previous studies.

[3] = Safety and tolerability in the phase III trials
Text: Data from subjects with mild to moderate UC are combined and analyzed from two phase III, multi-center, randomized, double-blind, controlled clinical trials of identical design assessing the safety and clinical efficacy of an increased dosage of 5-ASA.

[4] = tested on: moderate ulcerative colitis; test: Individual subject examples: PGA score and rectal bleeding
Text: The subject takes two tablets of the pharmaceutical in the morning and two tablets in the evening such that about 4.8 g/day of 5-ASA is delivered. […] The four tablets are taken in the morning so that 4.8 g/day of 5-ASA is delivered.

[5] = Example 5: person previously treated with steroids, four 1.2 g delayed-release tablets once daily (4.8 g/day)
[6] = Example 6: person, two 1.2 g delayed-release tablets three times daily (7.2 g/day)
[7] = Example 4: non-smoking man, oral, two 1.2 g tablets twice daily

## Nc1ccc(O)c(C(=O)O)c1 [mesalamine, 5-amino-2-hydroxybenzoic acid]
[1]; 2.4 g/day (400 mg tablet)
  Overall improvement: 58%
[1]; 2.4 g/day, male, moderate disease, Study 1, primary analysis
  Success Rate: 50.0%
[1]; 2.4 g/day, male, moderate disease, Study 1, set-to-failure
  Success Rate: 46.8%
[1]; 2.4 g/day, male, moderate disease, Study 2, primary analysis
  Success Rate: 48.8%
[1]; 2.4 g/day, male, moderate disease, Study 2, set-to-failure
  Success Rate: 47.7%
[1]; 2.4 g/day, moderate UC, combined studies, female
  Overall improvement at week 6: 66%
[1]; 2.4 g/day, moderate UC, combined studies, left-sided colitis
  Overall improvement at week 6: 56%
[1]; 2.4 g/day, moderate UC, combined studies, male
  Overall improvement at week 6: 50%
[1]; 2.4 g/day, moderate UC, combined studies, pancolitis
  Overall improvement at week 6: 55%
[1]; 2.4 g/day, moderate UC, combined studies, previous steroid use: no
  Overall improvement at week 6: 62%
[1]; 2.4 g/day, moderate UC, combined studies, previous steroid use: yes
  Overall improvement at week 6: 52%
[1]; 2.4 g/day, moderate UC, combined studies, proctitis
  Overall improvement at week 6: 71%
[1]; 2.4 g/day, moderate UC, combined studies, proctosigmoiditis
  Overall improvement at week 6: 56%
[1]; 2.4 g/day, moderate female, bowel and blood and sig scores at least 2, Study 2, primary endpoint, week 6
  Success Rate: 27%
[1]; 2.4 g/day, moderate female, bowel and blood and sig scores at least 2, Study 2, set to failure, week 6
  Success Rate: 27%
[1]; 2.4 g/day, moderate female, bowel and blood and sig scores at least 2, combined studies, primary endpoint, week 6
  Success Rate: 51%
[1]; 2.4 g/day, moderate female, bowel and blood and sig scores at least 2, combined studies, set to failure, week 6
  Success Rate: 49%
[1]; 2.4 g/day, moderate female, steroid or (bowel and blood and sig), Study 1, primary endpoint, week 6
  Success Rate: 55%
[1]; 2.4 g/day, moderate female, steroid or (bowel and blood and sig), Study 1, set to failure, week 6
  Success Rate: 51%
[1]; 2.4 g/day, moderate female, steroid or (bowel and blood and sig), Study 2, primary endpoint, week 6
  Success Rate: 33%
[1]; 2.4 g/day, moderate female, steroid or (bowel and blood and sig), Study 2, set to failure, week 6
  Success Rate: 31%
[1]; 2.4 g/day, moderate female, steroid or (bowel and blood and sig), combined studies, primary endpoint, week 6
  Success Rate: 46%
[1]; 2.4 g/day, moderate female, steroid or (bowel and blood and sig), combined studies, set to failure, week 6
  Success Rate: 43%
[1]; 2.4 g/day, moderate female, steroid use, Study 1, primary endpoint, week 6
  Success Rate: 43%
[1]; 2.4 g/day, moderate female, steroid use, Study 1, set to failure, week 6
  Success Rate: 41%
[1]; 2.4 g/day, moderate female, steroid use, Study 2, primary endpoint, week 6
  Success Rate: 38%
[1]; 2.4 g/day, moderate female, steroid use, Study 2, set to failure, week 6
  Success Rate: 33%
[1]; 2.4 g/day, moderate female, steroid use, combined studies, primary endpoint, week 6
  Success Rate: 41%
[1]; 2.4 g/day, moderate female, steroid use, combined studies, set to failure, week 6
  Success Rate: 38%
[1]; 2.4 g/day, women, moderate disease
  Actual response rate: exceeded 60%
[1]; 4.8 g/day (800 mg tablet)
  Overall improvement: 72%
[1]; 4.8 g/day, female, moderate disease, Study 2, set-to-failure
  Success Rate: 59.1%
[1]; 4.8 g/day, male, moderate disease, Study 1, primary analysis
  Success Rate: 75.5%
[1]; 4.8 g/day, male, moderate disease, Study 1, set-to-failure
  Success Rate: 74.1%
[1]; 4.8 g/day, male, moderate disease, Study 2, primary analysis
  Success Rate: 76.3%
[1]; 4.8 g/day, male, moderate disease, Study 2, set-to-failure
  Success Rate: 72.5%
[1]; 4.8 g/day, moderate UC, combined studies, female
  Overall improvement at week 6: 69%
[1]; 4.8 g/day, moderate UC, combined studies, left-sided colitis
  Overall improvement at week 6: 71%
[1]; 4.8 g/day, moderate UC, combined studies, male
  Overall improvement at week 6: 76%
[1]; 4.8 g/day, moderate UC, combined studies, pancolitis
  Overall improvement at week 6: 71%
[1]; 4.8 g/day, moderate UC, combined studies, previous steroid use: no
  Overall improvement at week 6: 69%
[1]; 4.8 g/day, moderate UC, combined studies, previous steroid use: yes
  Overall improvement at week 6: 79%
[1]; 4.8 g/day, moderate UC, combined studies, proctitis
  Overall improvement at week 6: 77%
[1]; 4.8 g/day, moderate UC, combined studies, proctosigmoiditis
  Overall improvement at week 6: 71%
[1]; 4.8 g/day, moderate female, bowel and blood and sig scores at least 2, Study 1, primary endpoint, week 6
  Success Rate: 81%
[1]; 4.8 g/day, moderate female, bowel and blood and sig scores at least 2, Study 2, set to failure, week 6
  Success Rate: 53%
[1]; 4.8 g/day, moderate female, bowel and blood and sig scores at least 2, combined studies, primary endpoint, week 6
  Success Rate: 76%
[1]; 4.8 g/day, moderate female, steroid or (bowel and blood and sig), Study 1, primary endpoint, week 6
  Success Rate: 75%
[1]; 4.8 g/day, moderate female, steroid or (bowel and blood and sig), Study 2, primary endpoint, week 6
  Success Rate: 73%
[1]; 4.8 g/day, moderate female, steroid or (bowel and blood and sig), combined studies, primary endpoint, week 6
  Success Rate: 74%
[1]; 4.8 g/day, moderate female, steroid or (bowel and blood and sig), combined studies, set to failure, week 6
  Success Rate: about 65%
[1]; 4.8 g/day, moderate female, steroid use, Study 1, primary endpoint, week 6
  Success Rate: 79%
[1]; 4.8 g/day, moderate female, steroid use, Study 1, set to failure, week 6
  Success Rate: 73%
[1]; 4.8 g/day, moderate female, steroid use, Study 2, set to failure, week 6
  Success Rate: 58%
[1]; 4.8 g/day, moderate female, steroid use, combined studies, primary endpoint, week 6
  Success Rate: 73%
[1]; 4.8 vs 2.4 g/day, female, moderate disease, Study 1, primary analysis
  Difference in Proportions: 2.3%
[1]; 4.8 vs 2.4 g/day, female, moderate disease, Study 1, set-to-failure
  Difference in Proportions: 3.0%
[1]; 4.8 vs 2.4 g/day, female, moderate disease, Study 2, primary analysis
  Difference in Proportions: 4.4%
[1]; 4.8 vs 2.4 g/day, female, moderate disease, Study 2, set-to-failure
  Difference in Proportions: −2.4%
[1]; 4.8 vs 2.4 g/day, male, moderate disease, Study 1, primary analysis
  Difference in Proportions: 25.5%
[1]; 4.8 vs 2.4 g/day, male, moderate disease, Study 1, set-to-failure
  Difference in Proportions: 27.3%
[1]; 4.8 vs 2.4 g/day, male, moderate disease, Study 2, primary analysis
  Difference in Proportions: 27.5%
[1]; 4.8 vs 2.4 g/day, male, moderate disease, Study 2, set-to-failure
  Difference in Proportions: 24.8%
[1]; 4.8 vs 2.4 g/day, men, moderate disease
  Observed differences in success rate between treatment groups: approximately 25%
[1]; 4.8 vs 2.4 g/day, women, moderate disease, bowel and blood and sigmoidoscopy scores each ≧2, Study 1, primary endpoint
  Difference in Proportions: 14%
[1]; 4.8 vs 2.4 g/day, women, moderate disease, bowel and blood and sigmoidoscopy scores each ≧2, Study 2, primary endpoint
  Difference in Proportions: 42%
[1]; 4.8 vs 2.4 g/day, women, moderate disease, history of steroid use or bowel and blood and sigmoidoscopy each ≧2, Study 1, primary endpoint
  Difference in Proportions: 20%
[1]; 4.8 vs 2.4 g/day, women, moderate disease, history of steroid use or bowel and blood and sigmoidoscopy each ≧2, Study 2, primary endpoint
  Difference in Proportions: 40%
[1]; 4.8 vs 2.4 g/day, women, moderate disease, history of steroid use, Study 1, primary endpoint
  Difference in Proportions: 36%
[1]; 4.8 vs 2.4 g/day, women, moderate disease, history of steroid use, Study 2, primary endpoint
  Difference in Proportions: 27%
[1]; by baseline disease activity, subjects having moderate UC
  Benefit of 4.8 g/day versus 2.4 g/day therapy (FIG. 3): increased therapeutic benefits
[1]; former steroid users, moderate UC
  Benefit of 4.8 g/day versus 2.4 g/day therapy (FIG. 2): increased therapeutic benefits
[1]; point estimates and 95% confidence intervals of differences, 54 subgroups
  4.8 g/day group versus 2.4 g/day group across pre-specified subgroups: consistently superior
[1]; subjects under about 65 years of age, Caucasians, non-smokers, moderate UC
  Benefit of 4.8 g/day versus 2.4 g/day therapy (FIG. 1): increased benefit
[2]
  Probability that 4.8 g/day results in a higher success rate than 2.4 g/day (Bayesian analysis): 99.97%
[2]; 2.4 g/day
  Probability of a successful treatment outcome (Bayesian analysis): 47.2%
[2]; 4.8 g/day
  Probability of a successful treatment outcome (Bayesian analysis): 74.7%
[3]; 2.4 g/day (400 mg tablet)
  Tolerability: well tolerated
[3]; 4.8 g/day (800 mg tablet), oral delayed-release
  Tolerability / adverse events: well tolerated with adverse events comparable to the 2.4 g/day (400 mg tablet) dose
[3]; about 4.8 g/day vs 2.4 g/day regimen
  Safety profile of regimen: comparable to that of the 2.4 g/day regimen
[4]; [5]
  Physician's Global Assessment (PGA) score: improves in comparison to baseline
  Rectal bleeding: reduced

## O=C(O)CCNC(=O)c1ccc(/N=N/c2ccc(O)c(C(=O)O)c2)cc1 [balsalazide, (E)-5-[[4-[[(2-carboxyethyl)amino]carbonyl]phenyl]azo]-2-hydroxybenzoic acid]
[4]; [6]
  Physician's Global Assessment (PGA) score: improves in comparison to baseline
  Rectal bleeding: reduced

## O=C(O)c1cc(N=Nc2ccc(O)c(C(=O)O)c2)ccc1O [olsalazine, 3,3′-dicarboxy-4,4′-dihydroxyazobenzene]
[4]; [7]
  Physician's Global Assessment (PGA) score: improves in comparison to baseline
  Rectal bleeding: reduces

— US20100305076A1, “METHODS OF TREATMENT FOR ULCERATIVE COLITIS” (priority 2006, published 2010)
